In patent publication US6248739A, “Quinolinecarboxamides as antiviral agents” (Pharmacia & Upjohn Company, priority 1999, dated 2001):

Assays:
HCMV polymerase = biological target: T1, HCMV polymerase (Human cytomegalovirus, UniProt P08546); assay: biochemical; details: HCMV polymerase; SPA; modified assay: compounds in 100% DMSO, 4.5 mM DTT
T1 construct: made in house; host or cells: recombinant baculovirus-infected SF-9 insect cells
Summary of the method: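 Scintillation proximity assay with baculovirus/SF-9-expressed HCMV polymerase, 90 nM ³H-dTTP and 6 nM biotinylated poly(dA)-oligo(dT) in HEPES pH 7.5/KCl/MgCl2/BSA, ±2 mM CHAPS, 25 or 37 °C, 30 min for HCMV. Modified version: compounds diluted in 100% DMSO, 4.5 mM DTT added. IC50 from linear regression.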

HSV polymerase = HSV polymerase (Human herpesvirus 1, UniProt P04293); assay: HSV polymerase assay (Table 1); assay type: biochemical
Sequence of HSV polymerase (P04293 whole entry): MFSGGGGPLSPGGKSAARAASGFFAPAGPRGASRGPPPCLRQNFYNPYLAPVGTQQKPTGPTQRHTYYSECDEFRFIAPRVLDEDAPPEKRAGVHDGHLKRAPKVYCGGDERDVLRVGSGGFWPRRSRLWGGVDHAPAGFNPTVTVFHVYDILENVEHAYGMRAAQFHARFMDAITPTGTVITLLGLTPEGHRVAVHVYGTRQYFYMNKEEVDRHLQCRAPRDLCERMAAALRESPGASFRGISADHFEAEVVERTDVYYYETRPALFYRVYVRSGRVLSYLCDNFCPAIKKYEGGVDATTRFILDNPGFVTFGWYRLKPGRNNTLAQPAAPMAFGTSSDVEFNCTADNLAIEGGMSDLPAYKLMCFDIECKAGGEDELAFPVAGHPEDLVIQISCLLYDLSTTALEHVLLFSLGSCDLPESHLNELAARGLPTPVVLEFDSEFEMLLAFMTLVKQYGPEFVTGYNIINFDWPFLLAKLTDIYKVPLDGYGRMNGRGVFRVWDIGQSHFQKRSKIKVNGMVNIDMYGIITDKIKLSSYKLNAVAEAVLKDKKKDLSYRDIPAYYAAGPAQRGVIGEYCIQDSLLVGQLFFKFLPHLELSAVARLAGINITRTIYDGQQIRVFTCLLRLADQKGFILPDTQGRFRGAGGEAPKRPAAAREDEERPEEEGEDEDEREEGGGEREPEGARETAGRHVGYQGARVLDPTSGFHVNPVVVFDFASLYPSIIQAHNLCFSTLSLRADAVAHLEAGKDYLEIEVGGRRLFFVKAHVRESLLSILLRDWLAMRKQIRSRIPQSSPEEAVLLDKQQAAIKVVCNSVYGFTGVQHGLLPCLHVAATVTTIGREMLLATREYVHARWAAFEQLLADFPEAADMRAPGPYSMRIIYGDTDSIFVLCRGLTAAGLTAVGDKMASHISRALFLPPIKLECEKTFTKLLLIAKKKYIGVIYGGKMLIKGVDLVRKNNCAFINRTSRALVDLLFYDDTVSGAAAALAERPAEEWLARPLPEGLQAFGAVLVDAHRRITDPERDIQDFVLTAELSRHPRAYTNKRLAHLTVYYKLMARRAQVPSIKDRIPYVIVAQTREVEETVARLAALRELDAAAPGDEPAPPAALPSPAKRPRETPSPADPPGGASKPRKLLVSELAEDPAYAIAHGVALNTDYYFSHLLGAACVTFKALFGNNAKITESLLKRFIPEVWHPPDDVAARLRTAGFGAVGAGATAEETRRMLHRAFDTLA

VZV polymerase = VZV polymerase (Varicella-zoster virus, UniProt P09252); assay: VZV polymerase assay (Table 1); assay type: biochemical
Sequence of VZV polymerase (P09252 whole entry): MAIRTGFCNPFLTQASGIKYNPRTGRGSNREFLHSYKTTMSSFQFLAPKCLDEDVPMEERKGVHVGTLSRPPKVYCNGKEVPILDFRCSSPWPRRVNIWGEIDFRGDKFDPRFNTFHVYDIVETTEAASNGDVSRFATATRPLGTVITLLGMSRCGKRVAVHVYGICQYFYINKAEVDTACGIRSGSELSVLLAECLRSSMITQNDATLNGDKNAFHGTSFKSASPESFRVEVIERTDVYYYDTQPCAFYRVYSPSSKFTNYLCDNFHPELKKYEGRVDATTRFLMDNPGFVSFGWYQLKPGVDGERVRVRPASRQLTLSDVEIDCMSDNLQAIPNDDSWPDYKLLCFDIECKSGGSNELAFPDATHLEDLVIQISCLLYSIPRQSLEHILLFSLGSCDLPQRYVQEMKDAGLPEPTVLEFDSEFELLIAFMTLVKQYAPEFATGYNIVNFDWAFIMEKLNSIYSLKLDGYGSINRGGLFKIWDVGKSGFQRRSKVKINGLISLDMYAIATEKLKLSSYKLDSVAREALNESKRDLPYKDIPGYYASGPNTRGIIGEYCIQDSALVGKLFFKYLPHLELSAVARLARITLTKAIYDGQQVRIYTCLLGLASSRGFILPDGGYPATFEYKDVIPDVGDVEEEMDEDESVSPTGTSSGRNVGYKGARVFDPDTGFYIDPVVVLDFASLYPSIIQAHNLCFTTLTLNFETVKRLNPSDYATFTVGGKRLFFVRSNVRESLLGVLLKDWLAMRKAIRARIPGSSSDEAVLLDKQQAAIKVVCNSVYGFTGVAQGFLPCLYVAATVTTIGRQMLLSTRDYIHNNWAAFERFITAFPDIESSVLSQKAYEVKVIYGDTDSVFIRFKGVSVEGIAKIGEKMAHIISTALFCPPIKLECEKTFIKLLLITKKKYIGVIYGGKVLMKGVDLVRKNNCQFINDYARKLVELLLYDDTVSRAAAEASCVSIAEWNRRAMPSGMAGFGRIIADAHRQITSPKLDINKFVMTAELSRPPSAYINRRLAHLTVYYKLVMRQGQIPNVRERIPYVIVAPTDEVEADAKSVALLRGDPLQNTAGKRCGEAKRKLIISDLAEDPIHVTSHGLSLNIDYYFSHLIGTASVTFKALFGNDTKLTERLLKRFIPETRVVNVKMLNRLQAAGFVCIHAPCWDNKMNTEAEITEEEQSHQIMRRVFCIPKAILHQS

T1 sequence (P08546 whole entry): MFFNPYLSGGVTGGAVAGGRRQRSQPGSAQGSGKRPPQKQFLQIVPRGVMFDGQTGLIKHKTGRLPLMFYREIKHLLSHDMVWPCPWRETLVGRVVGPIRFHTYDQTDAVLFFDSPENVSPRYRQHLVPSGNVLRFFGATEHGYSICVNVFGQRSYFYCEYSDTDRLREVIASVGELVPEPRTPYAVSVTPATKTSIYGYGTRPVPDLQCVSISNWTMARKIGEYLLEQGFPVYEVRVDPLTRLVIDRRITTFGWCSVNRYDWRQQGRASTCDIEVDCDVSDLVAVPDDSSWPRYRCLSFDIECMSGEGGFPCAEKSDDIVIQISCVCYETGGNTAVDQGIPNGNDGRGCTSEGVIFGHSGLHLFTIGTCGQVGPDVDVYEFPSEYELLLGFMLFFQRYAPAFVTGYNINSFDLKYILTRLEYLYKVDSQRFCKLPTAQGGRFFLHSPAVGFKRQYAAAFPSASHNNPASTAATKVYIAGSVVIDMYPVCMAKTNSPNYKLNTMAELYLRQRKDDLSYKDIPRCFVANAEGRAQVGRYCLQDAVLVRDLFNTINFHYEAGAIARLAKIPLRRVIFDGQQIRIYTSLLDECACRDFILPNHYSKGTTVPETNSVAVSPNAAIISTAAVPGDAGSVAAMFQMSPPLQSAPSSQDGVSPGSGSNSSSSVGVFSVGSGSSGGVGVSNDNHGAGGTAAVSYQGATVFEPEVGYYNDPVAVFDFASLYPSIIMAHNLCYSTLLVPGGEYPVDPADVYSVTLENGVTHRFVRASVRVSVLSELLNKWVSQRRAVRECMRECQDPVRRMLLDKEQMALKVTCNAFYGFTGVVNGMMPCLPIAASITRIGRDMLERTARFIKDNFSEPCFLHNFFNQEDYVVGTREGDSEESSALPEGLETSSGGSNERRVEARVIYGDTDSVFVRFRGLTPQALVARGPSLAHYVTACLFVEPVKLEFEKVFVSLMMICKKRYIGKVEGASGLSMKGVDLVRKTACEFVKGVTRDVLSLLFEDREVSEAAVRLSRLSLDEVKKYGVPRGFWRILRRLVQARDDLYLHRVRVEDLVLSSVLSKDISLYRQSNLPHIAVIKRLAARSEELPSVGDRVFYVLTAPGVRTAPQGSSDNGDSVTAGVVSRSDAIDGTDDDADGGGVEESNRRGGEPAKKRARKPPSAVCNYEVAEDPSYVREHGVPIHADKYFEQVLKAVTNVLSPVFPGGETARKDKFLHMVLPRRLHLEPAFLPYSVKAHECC

Structure (SMILES)	IC50 (HCMV polymerase) [nM]	IC50 (HSV polymerase) [nM]	IC50 (VZV polymerase) [nM]
O=C(NCc1ccc(Cl)cc1)c1cn(C2CC2)c2ccc(C#CCO)cc2c1=O [Example 25, N-(4-Chlorobenzyl)-1-cyclopropyl-6-(3-hydroxy-1-propynyl)-4-oxo-1,4-dihydro-3-quinolinecarboxamide]	1600	1600	1500
O=C(NCc1ccc(Cl)cc1)c1cn(CCOCCO)c2ccc(C#CCO)cc2c1=O [Example 55, N-(4-Chlorobenzyl)-1-[2-(2-hydroxyethoxy)ethyl]-6-(3-hydroxy-1-propynyl)-4-oxo-1,4-dihydro-3-quinolinecarboxamide]	2300	2400	1400
O=C(NCc1ccc(Cl)cc1)c1cn(CC#CCO)c2ccc(CN3CCOCC3)cc2c1=O [Example 62, N-(4-Chlorobenzyl)-1-(4-hydroxy-2-butynyl)-6-(4-morpholinylmethyl)-4-oxo-1,4-dihydro-3-quinolinecarboxamide]	1300	1100	610
Cn1cc(C(=O)NCc2ccc(Cl)cc2)c(=O)c2cc(CN3CC(O)C3)ccc21 [Example 75, N-(4-Chlorobenzyl)-6-[(3-hydroxy-1-azetidinyl)methyl]-1-methyl-4-oxo-1,4-dihydro-3-quinolinecarboxamide]	3300	4400	4000
COc1cc(C(O)CN(C)Cc2ccc3c(c2)c(=O)c(C(=O)NCc2ccc(Cl)cc2)cn3C)ccc1O (stereo not drawn) [Example 77, N-(4-Chlorobenzyl)-6-([(2-hydroxy-2-[4-hydroxy-3-methoxyphenyl]ethyl)[methyl]amino]methyl)-1-methyl-4-oxo-1,4-dihydro-3-quinolinecarboxamide]	1300	4100	2100

Compounds with a lower IC50 (HCMV polymerase), results first:

IC50 (HCMV polymerase) [nM]	IC50 (HSV polymerase) [nM]	IC50 (VZV polymerase) [nM]	Structure (SMILES)
530	780	490	O=C(NCc1ccc(Cl)cc1)c1cn(C2CC2)c2ccc(CCCO)cc2c1=O [Example 26, N-(4-Chlorobenzyl)-1-cyclopropyl-6-(3-hydroxypropyl)-4-oxo-1,4-dihydro-3-quinolinecarboxamide]
1100	1300	1000	Cn1cc(C(=O)NCc2ccc(Cl)cc2)c(=O)c2cc(C#CCO)ccc21 [Example 31, N-(4-Chlorobenzyl)-6-(3-hydroxy-1-propynyl)-1-methyl-4-oxo-1,4-dihydro-3-quinolinecarboxamide]
1100	900	500	CSCCCn1cc(C(=O)NCc2ccc(Cl)cc2)c(=O)c2cc(CN3CCOCC3)ccc21 [Example 61, N-(4-Chlorobenzyl)-1-[3-(methylsulfanyl)propyl]-6-(4-morpholinylmethyl)-4-oxo-1,4-dihydro-3-quinolinecarboxamide]
900	1000	630	C[S+]([O-])CCCn1cc(C(=O)NCc2ccc(Cl)cc2)c(=O)c2cc(CN3CCOCC3)ccc21 (stereo not drawn) [Example 65, N-(4-Chlorobenzyl)-1-[3-(methylsulfinyl)propyl]-6-(4-morpholinylmethyl)-4-oxo-1,4-dihydro-3-quinolinecarboxamide]
890	2800	1600	CN(Cc1ccc2c(c1)c(=O)c(C(=O)NCc1ccc(Cl)cc1)cn2C)CC(O)c1ccc(O)cc1 (stereo not drawn) [Example 74, N-(4-Chlorobenzyl)-6-([(2-hydroxy-2-[4-hydroxyphenyl]-ethyl) [methyl]amino]methyl)-1-methyl-4-oxo-1,4-dihydro-3-quinolinecarboxamide]
180	< 310	< 310	O=C(NCc1ccc(Cl)cc1)c1cn(CSc2ccccc2)c2ccc(CN3CCOCC3)cc2c1=O [Example 76, N-(4-Chlorobenzyl)-6-(morpholinylmethyl)-4-oxo-1-[(phenylsulfanyl)methyl]-1,4-dihydro-3-quinolinecarboxamide]
